This test concerns Rh18 complex spheroid viability, percent test/control. Nature of the test: Anticancer human tumor Rh18 cell line growth inhibition [Asc].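 As to all read-outs here: spheroids exposed to compound for 7 days.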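 As to viability, T/C: 100% = DMSO vehicle control wells.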 Conditions: for viability, T/C: stronger effect = lower value. The gist of the method: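 Complex spheroids combining tumor cells with HUVEC endothelial cells and human MSCs, at 37 degrees C, 5% CO2; agents tested alone or combined, half-log dilutions from at or near clinical Cmax, or 10 microM if Cmax unknown.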

[1] abbreviates: curve of first compound, second compound 0.01 µM.
The mark [2] stands for this setting: curve of first compound, second compound 0.0316 µM.
[3] abbreviates: curve of first compound, second compound 0.1 µM.
[4] abbreviates: curve of first compound, second compound 0.316 µM.
Setting [5] is: curve of first compound, second compound 1 µM.
Setting [6] is: second compound 0.1 µM, first compound 0.0316 µM.
The mark [7] stands for this setting: second compound 0.1 µM, first compound 0.1 µM.
[8] abbreviates: second compound 0.1 µM, first compound 0.316 µM.
The mark [9] stands for this setting: second compound 0.1 µM, first compound 1 µM.
The mark [10] stands for this setting: second compound 0.1 µM, first compound 3.16 µM.
Where [11] appears, read: second compound 0.1 µM, first compound 10 µM.
[12] abbreviates: second compound 0.316 µM, first compound 0.0316 µM.
Where [13] appears, read: second compound 0.316 µM, first compound 0.1 µM.
Setting [14] is: second compound 0.316 µM, first compound 0.316 µM.
The mark [15] stands for this setting: second compound 0.316 µM, first compound 1 µM.
The mark [16] stands for this setting: second compound 0.316 µM, first compound 3.16 µM.
Setting [17] is: second compound 0.316 µM, first compound 10 µM.
The mark [18] stands for this setting: second compound 1 µM, first compound 0.0316 µM.
The mark [19] stands for this setting: second compound 1 µM, first compound 0.1 µM.
[20] abbreviates: second compound 1 µM, first compound 0.316 µM.
Setting [21] is: second compound 1 µM, first compound 1 µM.
[22] abbreviates: second compound 1 µM, first compound 3.16 µM.
The mark [23] stands for this setting: second compound 1 µM, first compound 10 µM.

As a reminder, the IC50 is the concentration at which inhibition is half-maximal. The viability, T/C is the result in the treated group divided by that in the control group, in per cent.

Each structure is given as a SMILES string. Several values for one entry are separate records, joined by “and”; a condition that tells them apart may be missing. Identical values can stand only once. Some results are limits rather than exact numbers.

In the case of `C=CC(=O)N1CCN(c2nc(=O)n(-c3c(C)ccnc3C(C)C)c3nc(-c4c(O)cccc4F)c(F)cc23)C(C)C1` (centres undefined) + CNC(C)C(=O)NC1CN(S(=O)(=O)c2cccc(S(=O)(=O)N3CCC4CCC(C(=O)NC(c5ccccc5)c5ccccc5)N4C(=O)C(NC(=O)C(C)NC)C3)c2)CCC2CCC(C(=O)NC(c3ccccc3)c3ccccc3)N2C1=O, the IC50 is above 10000 nM under setting [1]; 4450 nM under setting [2]; 61 nM under setting [3]; below 31.6 nM under setting [4]; below 31.6 nM under setting [5]. Moreover, the viability, T/C was 61.6% (second compound 0.01 µM, first compound 0.0316 µM); 63.6% (second compound 0.01 µM, first compound 0.1 µM); 56% (second compound 0.01 µM, first compound 0.316 µM); 51.8% (second compound 0.01 µM, first compound 1 µM); 59.8% (second compound 0.01 µM, first compound 3.16 µM); 61.1% (second compound 0.01 µM, first compound 10 µM). In addition, the viability, T/C by setting is: (second compound 0.0316 µM, first compound 0.0316 µM) 52.4%; (second compound 0.0316 µM, first compound 0.1 µM) 54.8%; (second compound 0.0316 µM, first compound 0.316 µM) 61.9%; (second compound 0.0316 µM, first compound 1 µM) 46.2%; (second compound 0.0316 µM, first compound 3.16 µM) 60.7%; (second compound 0.0316 µM, first compound 10 µM) 37.8%. Further, the viability, T/C is, setting by setting: under setting [6], 49.4%; under setting [7], 52%; under setting [8], 48.6%; under setting [9], 43.1%; under setting [10], 46.4%; under setting [11], 43.6%. In addition, the viability, T/C by setting is: under setting [12], 43.1%; under setting [13], 41.3%; under setting [14], 41.2%; under setting [15], 43.9%; under setting [16], 52.5%; under setting [17], 45.4%. Moreover, the viability, T/C was 44.1% under setting [18]; 45% under setting [19]; 46.4% under setting [20]; 40% under setting [21]; 35.4% under setting [22]; 35.9% under setting [23].

Consider `Cc1nc(N2CCC3(CC2)COC(C)C3N)c(CO)nc1Sc1ccnc(N)c1Cl` (centres undefined), for which the viability, T/C was 73.9% and 66.6% and 93.2% (compound 0.00949 µM); 59.7% and 84% and 54% (compound 0.03 µM); 42.7% and 34.4% and 43% (compound 0.0949 µM); 35.3% and 19.2% and 23.9% (compound 0.3 µM); 25.5% and 25.6% and 19.7% (compound 0.949 µM); 13.4% and 15.9% and 15.6% (compound 3 µM). Moreover, the IC50 (curve of compound) was 65.4 nM and 61.2 nM and 47.5 nM.

`C#Cc1c(F)ccc2cc(O)cc(-c3ncc4c(N5CC6CCC(C5)N6)nc(OCC56CCCN5CC(F)C6)nc4c3F)c12` (centres undefined) + Cc1c(S(C)(=O)=O)c(-c2cc(F)cc(N3CCN(c4ccc(NS(=O)(=O)c5ccc(NC(CCN6CCC(C(=O)OCCCP(=O)(O)O)CC6)CSc6ccccc6)c(S(=O)(=O)C(F)(F)F)c5)cc4)CC3)c2)c(-c2ccc(Cl)cc2)n1C(C)C: the half-maximal inhibitory concentration (IC50) reads like this: under setting [3], below 31.6 nM; under setting [4], below 31.6 nM; under setting [5], below 31.6 nM; (curve of first compound, second compound 3.16 µM) below 31.6 nM; (curve of first compound, second compound 10 µM) below 31.6 nM. Besides, the viability, T/C under setting [6] is 14.1%; the viability, T/C under setting [7] is 10.3%; the viability, T/C under setting [8] is 12.1%; the viability, T/C under setting [9] is 13%; the viability, T/C under setting [10] is 15.7%; the viability, T/C under setting [11] was 15.8%. In addition, the viability, T/C under setting [12] is 11%; the viability, T/C under setting [13] is 10.6%; the viability, T/C under setting [14] is 10.8%; the viability, T/C under setting [15] was 8.98%; the viability, T/C under setting [16] was 10.4%; the viability, T/C under setting [17] is 12.9%. For the same compound, the viability, T/C runs as follows: under setting [18], 8.64%; under setting [19], 7.73%; under setting [20], 8.18%; under setting [21], 9.23%; under setting [22], 8.77%; under setting [23], 8.2%. Besides, the viability, T/C (second compound 3.16 µM, first compound 0.0316 µM) is 6.12%; the viability, T/C (second compound 3.16 µM, first compound 0.1 µM) was 6.59%; the viability, T/C (second compound 3.16 µM, first compound 0.316 µM) was 5.52%; the viability, T/C (second compound 3.16 µM, first compound 1 µM) was 4.57%; the viability, T/C (second compound 3.16 µM, first compound 3.16 µM) was 5.64%; the viability, T/C (second compound 3.16 µM, first compound 10 µM) was 6.94%. In addition, the viability, T/C was 5.81% (second compound 10 µM, first compound 0.0316 µM); 5.32% (second compound 10 µM, first compound 0.1 µM); 2.97% (second compound 10 µM, first compound 0.316 µM); 3.66% (second compound 10 µM, first compound 1 µM); 2.62% (second compound 10 µM, first compound 3.16 µM); 4.15% (second compound 10 µM, first compound 10 µM).

Take `NC(=O)C(=Cn1cnc(-c2cc(C(F)(F)F)cc(C(F)(F)F)c2)n1)c1cncnc1` + CNC(C)C(=O)NC1CN(S(=O)(=O)c2cccc(S(=O)(=O)N3CCC4CCC(C(=O)NC(c5ccccc5)c5ccccc5)N4C(=O)C(NC(=O)C(C)NC)C3)c2)CCC2CCC(C(=O)NC(c3ccccc3)c3ccccc3)N2C1=O: the IC50 under setting [1] was 6.12 nM; the IC50 under setting [2] was 3.91 nM; the IC50 under setting [3] was 15 nM; the IC50 under setting [4] came to 4.49 nM; the IC50 under setting [5] is below 0.949 nM. Moreover, the viability, T/C was 56.6% (second compound 0.01 µM, first compound 0.000949 µM); 53.5% (second compound 0.01 µM, first compound 0.003 µM); 49.4% (second compound 0.01 µM, first compound 0.00949 µM); 39.7% (second compound 0.01 µM, first compound 0.03 µM); 42% (second compound 0.01 µM, first compound 0.0949 µM); 32.8% (second compound 0.01 µM, first compound 0.3 µM). The viability, T/C is 74.8% (second compound 0.0316 µM, first compound 0.000949 µM); 51.3% (second compound 0.0316 µM, first compound 0.003 µM); 40.7% (second compound 0.0316 µM, first compound 0.00949 µM); 43.8% (second compound 0.0316 µM, first compound 0.03 µM); 38.7% (second compound 0.0316 µM, first compound 0.0949 µM); 31.4% (second compound 0.0316 µM, first compound 0.3 µM). The viability, T/C is 50.5% (second compound 0.1 µM, first compound 0.000949 µM); 56.4% (second compound 0.1 µM, first compound 0.003 µM); 49.7% (second compound 0.1 µM, first compound 0.00949 µM); 47.6% (second compound 0.1 µM, first compound 0.03 µM); 33.1% (second compound 0.1 µM, first compound 0.0949 µM); 27.7% (second compound 0.1 µM, first compound 0.3 µM). In addition, the viability, T/C is, setting by setting: (second compound 0.316 µM, first compound 0.000949 µM) 52%; (second compound 0.316 µM, first compound 0.003 µM) 60.1%; (second compound 0.316 µM, first compound 0.00949 µM) 38.7%; (second compound 0.316 µM, first compound 0.03 µM) 29.7%; (second compound 0.316 µM, first compound 0.0949 µM) 34.3%; (second compound 0.316 µM, first compound 0.3 µM) 24.9%. Further, the viability, T/C runs as follows: (second compound 1 µM, first compound 0.000949 µM) 46%; (second compound 1 µM, first compound 0.003 µM) 39.5%; (second compound 1 µM, first compound 0.00949 µM) 38%; (second compound 1 µM, first compound 0.03 µM) 37.8%; (second compound 1 µM, first compound 0.0949 µM) 34.3%; (second compound 1 µM, first compound 0.3 µM) 25.6%.

Regarding `C=CC(=O)N1CCN(c2nc(=O)n(-c3c(C)ccnc3C(C)C)c3nc(-c4c(O)cccc4F)c(F)cc23)C(C)C1` (centres undefined), the viability, T/C (compound 0.0316 µM) was 117% and 122% and 92.1%; the viability, T/C (compound 0.1 µM) is 95.2% and 169% and 115%; the viability, T/C (compound 0.316 µM) is 106% and 125% and 109%; the viability, T/C (compound 1 µM) was 118% (2×) and 104%; the viability, T/C (compound 3.16 µM) is 133% and 137% and 106%; the viability, T/C (compound 10 µM) is 115% and 89.8% and 92%. Also, the IC50 (curve of compound) is above 10000 nM.
